Laboratory results published in patent US11130741B2 (Bioimics AB, priority 2016, dated 2021).
Like-named read-outs stand apart in the source and are kept apart here.

Key:
[1] = test system: E. coli RNase P RNA, M1 RNA; assay: Inhibition of bacterial RNase P activity, IC50 determination (cleavage of pATSerUG by M1 RNA); assay type: biochemical; details: NI = No inhibition
[2] = test system: Enterococcus faecalis (ATCC29212); assay: MIC, broth microdilution (CLSI), Enterococcus faecalis ATCC29212; assay type: cell-based; details: read-out: MIC E. faecalis ATCC 29212
[3] = test system: Pseudomonas aeruginosa (ATCC27853); assay: microbe, parasite or virus in culture; assay type: cell-based; details: read-out: MIC P. aeruginosa ATCC 27853
[4] = test system: Staphylococcus aureus subsp. aureus (ATCC29213); assay: MIC, broth microdilution (CLSI), Staphylococcus aureus subsp. aureus ATCC29213; assay type: cell-based
[5] = test system: H. influenzae ATCC 49247; assay: MIC, H. influenzae ATCC 49247; assay type: cell-based; details: Haemophilus influenzae, ATCC49247
[6] = test system: A. baumannii ATCC 17978; assay: MIC, A. baumannii ATCC 17978; assay type: cell-based; details: Acinetobacter baumannii, ATCC17978
[7] = test system: P. aeruginosa NTUH-974 (MDR); assay: MIC, P. aeruginosa NTUH-974 (MDR); assay type: cell-based; details: Pseudomonas aeruginosa; read-out: MIC P. aeruginosa NTUH-974 (MDR)
[8] = test system: N. gonorrhoeae 612501; assay: MIC, N. gonorrhoeae 612501; assay type: cell-based; details: Neisseria gonorrhoeae
[9] = test system: H. pylori ATCC 43504; assay: MIC, H. pylori ATCC 43504; assay type: cell-based; details: Helicobacter pylori, ATCC43504
[10] = test system: E. faecium ATCC 700221; assay: MIC, E. faecium ATCC 700221; assay type: cell-based; details: Enterococcus faecium, ATCC700221; read-out: MIC E. faecium ATCC 700221
[11] = test system: E. coli JW5503; assay: MIC, E. coli JW5503; assay type: cell-based; details: Escherichia coli, JW5503, read-out: MIC E. coli JW5503
[12] = test system: K. pneumoniae ATCC 43816; assay: MIC, K. pneumoniae ATCC 43816; assay type: cell-based; details: Klebsiella pneumoniae, ATCC43816
[13] = test system: M. phlei ATCC 11758; assay: MIC, M. phlei ATCC 11758; assay type: cell-based; details: Mycolicibacterium phlei, ATCC11758
[14] = test system: S. aureus ATCC 29213; assay: MIC, S. aureus ATCC 29213 + 50% HS; assay type: cell-based; details: Staphylococcus aureus, ATCC29213
[15] = test system: S. aureus MRSA ATCC 33591; assay: MIC, S. aureus MRSA ATCC 33591; assay type: cell-based; details: Staphylococcus aureus; read-out: MIC S. aureus MRSA ATCC 33591
[16] = test system: S. pneumoniae ATCC 49619; assay: MIC, S. pneumoniae ATCC 49619; assay type: cell-based; details: Streptococcus pneumoniae, ATCC49619
[17] = test system: S. aureus USA300 MRSA BAA 1717; assay: MIC, S. aureus USA300 MRSA BAA 1717; assay type: cell-based; details: Staphylococcus aureus
[18] = test system: M. fortuitum ATCC 110; assay: MIC, M. fortuitum ATCC 110; assay type: cell-based; details: Mycolicibacterium fortuitum, ATCC110
[19] = test system: Escherichia coli (ATCC25922); assay: MIC, broth microdilution (CLSI), Escherichia coli ATCC25922
Experimental: Initial minimal inhibitory concentration (MIC) tests were made on two bacterial strains: • Escherichia coli (ATCC25922) • Staphylococcus aureus (ATCC25923).
Minimal Inhibitory Concentration (MIC)
MIC values were determined using the standard broth microdilution procedure based on the guidelines by the Clinical and Laboratory Standards Institute (CLSI). Briefly, the compounds were dissolved in DMSO to 10 mM. They were diluted in cation-adjusted Mueller-Hinton broth (CAMHB) to four times the highest concentration tested. A serial 2-fold dilution in CAMHB was done in microdilution plates. The inoculum of bacterial strain to be tested was prepared by making a suspension of colonies from an 18 to 24 hours old plate in CAMHB. The inoculum was diluted so that, after inoculation, each well contained approximately 5×10^5 CFU/mL. To a volume of 50 μl compound in CAMHB an equal volume of inoculum was added. The tray was sealed in a plastic bag and incubated at 35° C. for 16 to 20 hours. To aid in the detection of growth the dye resazurin was added to a final concentration 0.001% and incubated at room temperature for 1 h. Reduction of resazurin, and therefore bacterial growth, was seen as a change from blue to pink.

[20] = ATCC29213, Table 15, read-out: S. aureus ("wound") (MIC)
[21] = ATCC29213, Table 16, read-out: MIC S. aureus ATCC 29213
[22] = ATCC25922, read-out: E. coli MIC, Table 15, NI = No inhibition
[23] = ATCC25922, read-out: MIC E. coli ATCC 25922, Table 16

SMILES | IC50 [1] [µM] | MIC [2] [µg/mL] | MIC [3] [µg/mL] | MIC [4, 20] [µg/mL] | MIC [4, 21] [µg/mL] | MIC [5] [µg/mL] | MIC [6] [µg/mL] | MIC [7] [µg/mL] | MIC [8] [µg/mL] | MIC [9] [µg/mL] | MIC [10] [µg/mL] | MIC [11] [µg/mL] | MIC [12] [µg/mL] | MIC [13] [µg/mL] | MIC [14] [µg/mL] | MIC [15] [µg/mL] | MIC [16] [µg/mL] | MIC [17] [µg/mL] | MIC [18] [µg/mL] | MIC [19, 22] [µg/mL] | also measured
Cl.NC1CCCC(CNc2cc(C(F)(F)F)cc3c2Nc2ccc(N4CCCC4)cc2S3)C1 (stereo not drawn) [compound 300, N-((3-aminocyclohexyl)methyl)-7-(pyrrolidin-1-yl)-3-(trifluoromethyl)-10H-phenothiazin-1-amine] | 1.9 | 1 | > 32 | 1 | 1 | 2 | 8 | > 32 | 1 | 16 | 1 | 2 | 8 | 4 | 16 | 1 | 4 | 1 | 2 | 16 | MIC [19, 23]: 4 µg/mL
CC1CCCN(c2ccc3c(c2)Sc2cc(C(F)(F)F)cc(NC4CCN(CCN)CC4)c2N3)C1.Cl.Cl (stereo not drawn) [compound 301, N-(1-(2-aminoethyl)piperidin-4-yl)-7-(3-methyl-piperidin-1-yl)-3-(trifluoromethyl)-10H-phenothiazin-1-amine hydrochloride] | 27 | 2 | 16 | 2 | 4 | 2 | 4 | 16 | 1 | 8 | 2 | 2 | 4 | 8 | 16 | 2 | 4 | 2 | 4 | 4 | MIC [19, 23]: 4 µg/mL
Cl.Cl.NCCNCCC(=O)Nc1cc(C(F)(F)F)cc2c1Nc1ccc(N3CCCC3)cc1S2 [compound 302, 3-((2-aminoethyl)amino)-N-(7-(pyrrolidin-1-yl)-3-(trifluoromethyl)-10H-phenothiazin-1-yl)propanamide hydrochloride] | 3.6 | 8 | 32 | 32 | 8 | 16 | 32 | 32 | 8 | 32 | 4 | 16 | 16 | 16 | 64 | 8 | 64 | 8 | 8 | 128 | MIC [19, 23]: 16 µg/mL
CC1(C)CCCN(c2ccc3c(c2)Sc2cc(C(F)(F)F)cc(NC4CCN(CCN)CC4)c2N3)C1.Cl.Cl [compound 305, N-(1-(2-aminoethyl)piperidin-4-yl)-7-(3,3-dimethyl-piperidin-1-yl)-3-(trifluoromethyl)-10H-phenothiazin-1-amine hydrochloride] | 2.9 | 1 | 16 | 2 | 1 | 1 | 4 | 16 | 1 | 16 | 1 | 4 | 4 | 2 | 32 | 1 | 2 | 1 | 4 | 4 | MIC [19, 23]: 4 µg/mL
CCN(CC)c1ccc2c(c1)Sc1cc(C(F)(F)F)cc(NC3CCN(CCN)CC3)c1N2.Cl.Cl.Cl [compound 306, N1-(1-(2-aminoethyl)piperidin-4-yl)-N7,N7-diethyl-3-(trifluoromethyl)-10H-phenothiazine-1,7-diamine hydrochloride] | 50 | 4 | 32 | 2 | 2 | 8 | 8 | 32 | 2 | 32 | 2 | 2 | 4 | 8 | 8 | 2 | 4 | 2 | 4 | 4 | MIC [19, 23]: 4 µg/mL
CC1CCN(c2ccc3c(c2)Sc2cc(C(F)(F)F)cc(NC4CCN(CCN)CC4)c2N3)CC1.Cl.Cl [compound 307, N-(1-(2-aminoethyl)piperidin-4-yl)-7-(4-methyl-piperidin-1-yl)-3-(trifluoromethyl)-10H-phenothiazin-1-amine hydrochloride] | 16 | 2 | 16 | 2 | 2 | 2 | 8 | 16 | 1 | 16 | 2 | 2 | 4 | 8 | 32 | 2 | 8 | 2 | 4 | 4 | MIC [19, 23]: 4 µg/mL
